Test results reported in PubChem BioAssay AID256 (DTP/NCI, 2004).
Inconclusive results and toxic doses are left out. How the source made its calls: active means survival T/C of 150% or more; inactive means T/C below 125% in these data.

Tested on: CD2F1 mice, L1210 leukemia ip, survival T/C
Assay: NCI In Vivo Anticancer Drug Screen. Data for tumor model L1210 Leukemia (intraperitoneal) in CD2F1 (CDF1) mice
Conditions: endpoint: mean survival time, higher = longer survival
Protocol: The antitumor activity of compounds was measured in mice bearing transplantable tumors. Survival or tumor size were measured and the results are expressed as the measurement made in the treated group (T) divided by the measurement made in the vehicle treated control group (C). The tumor model used in this assay is L1210 Leukemia (intraperitoneal) in CD2F1 (CDF1) mice

[1] = dose: 50.0 mg/kg/injection, schedule: Q01DX009 (ip), vehicle: Klucel (hydroxypropylcellulose) (HPC)
[2] = dose: 100.0 mg/kg/injection, schedule: Q01DX009 (ip), vehicle: Klucel (hydroxypropylcellulose) (HPC)
[3] = dose: 200.0 mg/kg/injection, schedule: Q01DX009 (ip), vehicle: Klucel (hydroxypropylcellulose) (HPC)

Measured: T/C

CN(C(=O)c1c(Cl)n(C)c2ccccc12)c1ccccc1
inactive: dose: 25.0 mg/kg/injection, schedule: Q04DX003 (ip), vehicle: Klucel (hydroxypropylcellulose) (HPC) 98 % of control | dose: 50.0 mg/kg/injection, schedule: Q04DX003 (ip), vehicle: Klucel (hydroxypropylcellulose) (HPC) 101 % of control | dose: 100.0 mg/kg/injection, schedule: Q04DX003 (ip), vehicle: Klucel (hydroxypropylcellulose) (HPC) 104 % of control

C=CCCCCCCCCC(=O)N1CCOCC1
inactive: dose: 100.0 mg/kg/injection, schedule: Q04DX002 (ip), vehicle: saline 97 % of control

CN(C)N=Nc1ccc([N+](=O)[O-])cc1
inactive: [1] 98 % of control | dose: 79.0 mg/kg/injection, schedule: Q01DX009 (ip), vehicle: Klucel (hydroxypropylcellulose) (HPC) 102 % of control | [2] 102 % of control | dose: 118.0 mg/kg/injection, schedule: Q01DX009 (ip), vehicle: Klucel (hydroxypropylcellulose) (HPC) 108 % of control | dose: 177.0 mg/kg/injection, schedule: Q01DX009 (ip), vehicle: Klucel (hydroxypropylcellulose) (HPC) 120 % of control | [3] 108 % of control

Cc1ccc([N+](=O)[O-])cc1NC(=O)Nc1cc([N+](=O)[O-])ccc1F
inactive: [1] 112 % of control | [2] 101 % of control | [3] 101 % of control
